From PMC4445002, “Efficient inhibition of tumor angiogenesis and growth by a synthetic peptide blocking S100A4-methionine aminopeptidase 2 interaction” (Molecular Therapy. Methods & Clinical Development, 2015) come the findings set out here.

Holding throughout (format): cell-based, mouse
Assay [1] relates to vinculin and integrin β1 focal adhesions in MSS31 cells. Description: Focal adhesion and F-actin immunofluorescence. The following applies: 5 μg/well, 18 hours. How it is done:
Figure 7 Stimulation of the formation of focal contacts by the NBD peptide. MSS31 cells incubated with atelocollagen alone or the peptide/atelocollagen complexes were subjected to immunofluorescent staining and western blot analysis. (a) Formation of focal adhesions. The cells were immunostained with antivinculin or anti-integrin β1 antibody followed by Alexa Fluor 488-conjugated secondary antibody. F-actin was visualized with Atto 647N-Phalloidin. Nuclei were stained with DAPI. Scale bars: 50 μm. (b) Western blot analysis of focal adhesion proteins. Total cellular proteins were subjected to immunoblot analysis. (c) Relative expression level of vinculin (VCN), integrin β1 (ITGβ1) and p-FAK. The band intensity of VCN and ITGβ1 and p-FAK relative to that of β-actin and total FAK, respectively, was measured using ImageJ software and normalized to control cells.
MSS31 cells cultured in six-well plates were incubated with 5 μg/well of the NBD or the CBD peptide/atelocollagen complex or atelocollagen alone for 18 hours in Culture Slides (4 wells, BD Falcon) and were washed three times with DPBS and fixed for 10 minutes at 4 °C with 4% formaldehyde in DPBS. After permeabilizing with 0.5% Triton X-100 in DPBS for 4 minutes, the cells were treated with 3% bovine serum albumin in DPBS containing 0.1% glycine for 1 hour to block nonspecific binding sites. After washing with DPBS, the cells were incubated for 1 hour with primary antibodies, rinsed, and then stained with secondary antibodies. The primary antibodies used were polyclonal anti-S100A4, monoclonal anti-NMIIA antibody, monoclonal antivinculin antibody and polyclonal anti-integrin β1 antibody. The secondary antibody was Alexa Fluor 488-conjugated goat antirabbit IgG (Invitrogen) or Alexa Fluor 594-conjugated goat antimouse IgG (Invitrogen). F-Actin was visualized with Atto 647N-Phalloidin (Sigma-Aldrich). Nuclei were stained with 1 μg/ml DAPI. The slides were mounted with VECTASHIELD Mounting Medium (Vector Laboratories). The cells were observed under a confocal laser scanning microscope (Fluoview FV1000, Olympus, Japan).

For assay [2], the system named is MSS31 cells. Description: Cell cycle progression by BrdU flow cytometry. The following applies: 9 hours. The method, then:
Since the overexpression of the SBD in MSS31 cells caused DNA synthesis inhibition, we examined the effect of the NBD peptide on cell cycle progression by flow cytometry after treating the cells with various concentrations of the synthetic peptides (0–1.0 μg/well) complexed with atelocollagen for 9 hours.
(§1) Figure 8 Inhibition of cell cycle progression and cell growth by the NBD peptide. MSS31 cells were treated with atelocollagen alone or the NBD or the CBD peptide/atelocollagen complex in vitro. (a) Cell cycle progression. The cells were labeled with BrdU and then subjected to flow cytometry. (b) Cell growth. The values represent cell growth rate relative to that of control cells that is set to 100%. The NBD peptide inhibited the growth of MSS31 cells compared to the control cells (atelocollagen alone). Data represent the mean ± SD (n = 4), P < 0.01. TEXT PRINTED IN THE PICTURE: (a) NBD: S:13.2%; G1:70.7%; G2/M:9.6% | (a) CBD: S:32.1%; G1:55.4%; G2/M:8.9% | (a) peptide(−): S:36.7%; G1:49.6%; G2/M:9.7%
MSS31 cells treated with 1.0 μg/ml of the NBD peptide or the CBD peptide/atelocollagen were labeled with 10 μmol/l BrdU for 6 hours. Atelocollagen alone was used as a control. Flow cytometric analysis was carried out using the FITC BrdU Flow Kit (BD Biosciences Pharmigen, San Diego, CA) following the manufacturer’s instructions.
In general terms: A flow cytometer gives signals particle by particle.

In assay [3] the test system is MSS31 cells. Kind of assay: MSS31 cell growth. Particulars: atelocollagen complex; relative to control cells set to 100%; n = 4, P < 0.01. The method, then: as §1
Assay [4] deals with angiogenesis-related genes in MSS31 cells. Kind of assay: Expression of angiogenesis-related genes by qRT-PCR. The following applies: atelocollagen complex, retn, fgf18, aqp1, map3k5, thy1, foxo6, hs6st1, cdkn1a, thbs1, spry4. The method, then: Therefore, an alternative action mechanism of the NBD peptide would be the modulation of the expression of these angiogenesis-related genes.
Caspase3/7 assays was performed with Apo-ONE Caspase-3/7 Assay
Reagent (Promega). No significant changes are observed.
F i g . […]
PC-3M-Luc cells were treated with atelocollagen alone or the NBD peptide/atelocollagen complex in vitro, and their growth rate was monitored.
The values represent cell growth rate relative to that of control cells that is […]
MSS31 cells were incubated with the peptide/atelocollagen complexes.
Isolation of total RNA and subsequent qRT-PCR analysis were carried out as described previously (30). The GAPDH gene was used as an internal control.
(a) Proangiogenic genes in NBD and CBD peptides-treated cells. (b)
Antiangiogenic genes in NBD and CBD peptides-treated cells.
In general terms: In qPCR the cycle at which signal appears reflects the starting amount.

Another assay relates to S100A4 in MSS31 cells. Description: S100A4 expression in peptide-loaded cells by western blot. The following applies: atelocollagen complex; Supplementary Figure S3. In general terms: Immunoblotting shows a protein as a band on a membrane.
Where [5] appears, read: 0–1.0 μg/well with atelocollagen.

On to “NBD: N-terminal 39 amino acid sequence of SBD, from Arg170 to Ileu208; corresponding to MetAP2 (170–208) (REAAEAHRQVRKYVMSWIKPGMTMIEICEKLEDCSRKLI)”, for which, in assay [1] (atelocollagen complex, vinculin and integrin β1 staining), the “number of focal adhesions per cell” value is “greater number of vinculin- and integrin β1-containing focal adhesions per cell than the untreated and the CBD peptide-treated cells”. For the same substance, in assay [1] (immunofluorescence), the “distribution of focal adhesions” value is reported as “focal adhesions were distributed uniformly”. In addition, the “formation of actin filaments” value in assay [1] (phalloidin staining) was “Formation of actin filaments was also prominent”. For the same substance, in the assay with MSS31 cells [2] (setting [5]), the “effect on G2/M phase” value is reported as “not significantly affected” and the “effect on cell cycle progression” value is “leads to cell cycle arrest in the G1/S phase”. Further, in the assay with MSS31 cells [2] (atelocollagen complex, BrdU flow cytometry, representative study, without peptide 9.7%), the “cells in G2/M phase” value is recorded as 9.6%. Also, in the assay on MSS31 cells [2] (atelocollagen complex, BrdU flow cytometry, representative study, without peptide 36.7%), the “cells in S phase” value is reported as 13.2%. In addition, in the assay on MSS31 cells [2] (atelocollagen complex, BrdU flow cytometry, representative study, without peptide 49.6%), the “cells in G1 phase” value is listed as 70.7%. Further, the “growth of MSS31 cells” value in the assay on MSS31 cells [3] is “significantly inhibited the growth of MSS31 cells”. The “expression of angiogenesis-related genes” value in assay [4] is “could not detect any alteration of the expression of these genes”. In addition, the “expression level of S100A4” value in the assay with S100A4 in MSS31 cells was “no apparent change in the expression level of S100A4”.
